In PubChem BioAssay (NCI):
Several values for one entry are separate records, joined by “and”; a condition that tells them apart may be missing. Equal entries are not always repeated.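 Test compounds were applied to cells in 96-well plates for 48 hours at 5 doses. Here, GI50 denotes the concentration required for 50% inhibition of growth. At the TGI there is no net growth.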

Tests used:
Test in all cases: inhibition of tumour cell growth, NCI panel, 48 h
NCI/ADR-RES ovarian = tested on: NCI/ADR-RES ovarian
NCI-H226 lung = tested on: NCI-H226 lung
CAKI-1 renal = tested on: CAKI-1 renal
EKVX NSCLC = tested on: EKVX NSCLC
OVCAR-3 ovarian = tested on: OVCAR-3 ovarian
MALME-3M melanoma = tested on: MALME-3M melanoma
HCT-116 colon = tested on: HCT-116 colon
RPMI-8226 leukemia = tested on: RPMI-8226 leukemia
HOP-92 NSCLC = tested on: HOP-92 NSCLC
PC-3 prostate = tested on: PC-3 prostate

SMILES	GI50 (NCI/ADR-RES ovarian)	TGI (NCI/ADR-RES ovarian)	GI50 (NCI-H226 lung)	TGI (NCI-H226 lung)	GI50 (CAKI-1 renal)	TGI (CAKI-1 renal)	GI50 (EKVX NSCLC)	TGI (EKVX NSCLC)	GI50 (OVCAR-3 ovarian)	TGI (OVCAR-3 ovarian)	GI50 (MALME-3M melanoma)	TGI (MALME-3M melanoma)	GI50 (HCT-116 colon)	TGI (HCT-116 colon)	GI50 (RPMI-8226 leukemia)	TGI (RPMI-8226 leukemia)	GI50 (HOP-92 NSCLC)	TGI (HOP-92 NSCLC)	GI50 (PC-3 prostate)	TGI (PC-3 prostate)
O=c1[nH]c2ccccc2n1C1CCN(CCCC(c2ccc(F)cc2)c2ccc(F)cc2)CC1	1.46 µM and 3.2 µM	2.96 µM and 13.2 µM	1.51 µM and 6.66 µM	2.97 µM and 20.3 µM	1.39 µM and 7.46 µM	2.96 µM and 20.9 µM	1.66 µM and 8.47 µM	4.54 µM and 22.7 µM	1.7 µM and 4.37 µM	3.13 µM and 13.1 µM	1.71 µM	3.42 µM and 5.09 µM	1.44 µM and 5.67 µM	3.14 µM and 17.8 µM	2.06 µM and 3.96 µM	8.97 µM and 20.4 µM	0.252 µM	1.71 µM and 14 µM	1.41 µM and 7.81 µM	3.2 µM and 21.3 µM
C[C@@H](NC(=O)c1ccc(F)cc1)c1ccc2c(c1)CCN2C(=O)C1CCOCC1	> 100 µM	> 100 µM	> 100 µM	> 100 µM	> 100 µM	> 100 µM	> 100 µM	> 100 µM	> 100 µM	> 100 µM	> 100 µM	> 100 µM	> 100 µM	> 100 µM	> 100 µM	> 100 µM	> 100 µM	> 100 µM	> 100 µM	> 100 µM
O=[N+]([O-])c1cc(Cc2cc([N+](=O)[O-])c3cccnc3c2O)c(O)c2ncccc12	–	54.1 µM	–	43.5 µM	–	41.3 µM	–	61.9 µM	–	6.71 µM	–	25.5 µM	–	16.9 µM	–	41.4 µM	–	37.1 µM	–	23.4 µM
Cc1ccc(-n2c(-c3cc4c([nH]c5ccccc54)c(-c4cccc(O)c4)n3)n[nH]c2=S)cc1	4.14 µM	24.1 µM	0.658 µM	3.94 µM	1.73 µM	4.9 µM	1.95 µM	11.1 µM	0.399 µM	1.86 µM	2.57 µM	17.6 µM	0.384 µM	10 µM	0.808 µM	3.76 µM	4.76 µM	27.4 µM	2.48 µM	42.4 µM
CC1CCN(CCOc2ccc(CNc3ccc4nc(CCC5CCCCC5)[nH]c4c3)cc2)CC1	1.81 µM	4.12 µM	1.63 µM	3.48 µM	1.87 µM	3.34 µM	1.62 µM	3.18 µM	1.61 µM	3.12 µM	1.71 µM	3.17 µM	1.4 µM	2.72 µM	1.38 µM	3.35 µM	0.643 µM	2.23 µM	1.44 µM	2.93 µM
C=C1C(=O)O[C@H]2[C@H]1CC/C(COC(=O)NCc1c[nH]c3ccc(F)cc13)=C\CC[C@@]1(C)O[C@@H]21	3.58 µM	20.3 µM	1.74 µM	3.3 µM	1.53 µM	3.18 µM	1.89 µM	4.51 µM	0.984 µM	3.07 µM	1.66 µM	3.32 µM	0.703 µM	2.04 µM	0.456 µM	2.27 µM	1.48 µM	3.04 µM	1.48 µM	3.05 µM
O=C1/C(=C/c2ccccc2O)N=C(c2ccccc2)N1c1cc(C(F)(F)F)ccc1Cl	46.6 µM	> 100 µM	33 µM	> 100 µM	14.3 µM	38.5 µM	38.3 µM	> 100 µM	54.2 µM	> 100 µM	46.7 µM	> 100 µM	25 µM	> 100 µM	> 100 µM	> 100 µM	19.1 µM	53 µM	42.7 µM	> 100 µM
CC(C)(C)c1cc(C(=O)O)c2c(c1)C(=O)OC2(c1ccccc1)c1ccccc1C(=O)O (stereo not drawn)	> 100 µM	> 100 µM	–	> 100 µM	–	> 100 µM	–	> 100 µM	–	> 100 µM	–	> 100 µM	–	> 100 µM	> 100 µM	> 100 µM	–	> 100 µM	> 100 µM	> 100 µM
C[C@H]1CN(C2COC2)CCN1c1ccc(Nc2cc(-c3ccnc(N4CCn5c(cc6c5CC(C)(C)C6)C4=O)c3CO)cn(C)c2=O)nc1	47.8 µM	> 100 µM	19.6 µM	46.5 µM	27.9 µM	> 100 µM	> 100 µM	> 100 µM	37.4 µM	> 100 µM	> 100 µM	> 100 µM	38.4 µM	> 100 µM	13.1 µM	60.7 µM	12.6 µM	64.6 µM	36.6 µM	> 100 µM
COc1cc(-c2ncn(/C=C\c3nnco3)n2)cc(C(F)(F)F)c1	0.2 µM	> 100 µM	0.0312 µM	4.3 µM	0.154 µM	> 100 µM	4.66 µM	> 100 µM	0.12 µM	2.69 µM	0.464 µM	> 100 µM	0.153 µM	13.5 µM	0.102 µM	> 89.1 µM	0.952 µM	46.5 µM	0.189 µM	> 100 µM
